Data as given in US8461117B2, “Chemical linkers and cleavable substrates and conjugates thereof” (Medarex, Inc., priority 2006, dated 2013).

Tests used:
[1] = cited from earlier work
786-O [2] = experiment: Second in vivo study: 786-O xenografts, cytotoxins (Compounds A, F, H-J) conjugated to anti-CD70 HuMAb 2H5; design: species or system CB17.SCID mice; settings: 786-O xenograft, tumors averaging 200 mm^3, single IP dose Day 0, 0.005-0.03 Toxin μmole, conjugated to CD70.1
Protocol: (§1) 786-O (ATCC Accession No. CRL-1932) cells were expanded in vitro using standard laboratory procedures. Male CB17.SCID mice (Taconic, Hudson, N.Y.) between 6-8 weeks of age were implanted subcutaneously in the right flank with 2.5 million 786-O in 0.2 ml of PBS/Matrigel (1:1) per mouse. Mice were weighed and measured for tumors three dimensionally using an electronic caliper twice weekly after implantation. Tumor volumes were calculated as height×width×length. Mice with tumors averaging 200 mm^3 were randomized into treatment groups. The mice were dosed intraperitoneally with PBS vehicle, cytotoxin-conjugated isotype control antibody or cytotoxin-conjugated anti-CD70 HuMAb 2H5 on Day 0. Each group contained 8 mice.

786-O [3] = experiment: First in vivo study: 786-O xenografts, cytotoxins (Compounds A-G) conjugated to anti-CD70 HuMAb 2H5; design: species or system CB17.SCID mice; settings: 786-O xenograft, tumors averaging 200 mm^3, single IP dose Day 0, 0.1 (some also 0.01) Toxin μmole, conjugated to CD70.1
Protocol: as §1, with “as height x width x length.” for “as height×width×length.”, “contained 7” for “contained 8”

| Compound | Efficacy, descending order (mean/median tumor volume versus days past dosing, FIGS. 4-5) (786-O [2]) | further results |
| --- | --- | --- |
| COc1c(O)c2c(c3cc(C(=O)N4CCc5c4c(O)c(OC)c4[nH]c(C(=O)N6CC7CC78C6=CC(=O)c6[nH]cc(C)c68)cc54)[nH]c13)CCN2C(N)=O (stereo not drawn) [CC-1065] |  | Antitumor and antimicrobial activity ([1]; both in vitro and in experimental animals (Li et al. 1982)): potent antitumor and antimicrobial activity; Toxicity in experimental animals ([1]; experimental animals): delayed death |
| CC(C)[C@H](NCCNC(=O)CCCN1C(=O)C=CC1=O)C(=O)N[C@@H](CCCNC(N)=O)C(=O)Nc1ccc(C(=O)Nc2ccc3[nH]c(C(=O)N4C[C@@H](CBr)c5c4cc(OC(=O)N4CCN(C)CC4)c4ccccc54)cc3c2)cc1 [Compound H] | Compound J/Compound C>Compound H>Compound G/Compound I>Naked CD70.1 |  |
| CC(C)[C@H](NC(=O)CCOCCOCCOCCOCCNC(=O)CCN1C(=O)C=CC1=O)C(=O)N[C@@H](CCCNC(N)=O)C(=O)N1CCc2c1ccc1[nH]c(C(=O)N3C[C@@H](CBr)c4c3cc(OC(=O)N3CCN(C)CC3)c3ccccc43)cc21 [Compound D] |  | Efficacy, descending order (mean/median tumor volume versus days past dosing, FIGS. 1-2) (786-O [3]): Compound D>Compound A>Compound F>Compound B>Compound C>Compound E>Naked CD70.1/Compound G |
| CC(C)[C@H](NCCNC(=O)CCCN1C(=O)C=CC1=O)C(=O)N[C@@H](CCCNC(N)=O)C(=O)Nc1ccc(C(=O)Nc2ccc3[nH]c(C(=O)N4C[C@@H](CCl)c5c4cc(OC(=O)N4CCN(C)CC4)c4ccccc54)cc3c2)cc1 [Compound J] | Compound J/Compound C>Compound H>Compound G/Compound I>Naked CD70.1 |  |
| CC(C)[C@H](NC(=O)CCOCCOCCOCCOCCNC(=O)CCN1C(=O)C=CC1=O)C(=O)N[C@@H](CCCNC(N)=O)C(=O)N1CCc2c1ccc1[nH]c(C(=O)N3C[C@@H](CBr)c4c3cc(OC(=O)N3CCN(C)CC3)c3ccccc43)cc21 [Compound C] | Compound J/Compound C>Compound H>Compound G/Compound I>Naked CD70.1 |  |
